Results as given in patent publication US9580444B2, “Polycyclic pyrazolinone derivative and herbicide comprising same as effective component thereof” (priority 2013, dated 2017).

Tests used:
Type in all cases: in vivo
[1] = system: Abutilon theophrasti (velvetleaf); assay: Test Example-4: herbicidal effect by a foliage treatment after weeds are generated under upland field conditions; conditions: 500 g a.i/ha, foliage treatment after emergence, about 14 days after treatment, score 0-5
Outline: (§1)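 Upland soil; seeds covered ~0.5 cm, grown 14 d. Foliar spray of diluted WP or EC, predetermined dose, 4000 L water/ha. Herbicidal effect and corn phytotoxicity scored on a six-stage 0–5 scale ~14 d post-treatment.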

[2] = system: Chenopodium album (common lambsquarters); assay: as above; conditions: 500 g a.i/ha, foliage treatment after emergence, about 14 days after treatment, score 0-5
Outline: as §1

[3] = system: Amaranthus viridis (green amaranthus); assay: as above; conditions: 500 g a.i/ha, foliage treatment after emergence, about 14 days after treatment, score 0-5
Outline: as §1

[4] = system: corn; assay: Test Example-4: phytotoxicity by a foliage treatment after weeds are generated under upland field conditions; conditions: 500 g a.i/ha, foliage treatment after emergence, about 14 days after treatment, score 0-5
Outline: as §1

[5] = system: Chenopodium album (common lambsquarters); assay: Test Example-2: herbicidal effect by a soil treatment before weeds are generated under upland field conditions; conditions: application amount 500 g a.i/ha, soil spray treatment before weeds are generated, about 21 days after the treatment, score 0 to 5
Outline: (§2)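 Pre-emergence soil treatment: seeds sown in upland soil and covered with about 0.5 cm soil were sprayed the next day with diluted wettable powder or emulsifiable concentrate at a predetermined dosage. Weed control and corn injury were scored on a 0–5 scale about 21 days after treatment.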

[6] = system: Amaranthus viridis (green amaranthus); assay: as above; conditions: application amount 500 g a.i/ha, soil spray treatment before weeds are generated, about 21 days after the treatment, score 0 to 5
Outline: as §2

[7] = system: corn; assay: Test Example-3: phytotoxicity by a treatment before weeds are generated under upland field conditions; conditions: upland soil treatment before emergence, about 21 days after treatment, score 0-5
Excerpt: (§3) Using the formulation prepared according to the methods described above, the herbicidal effect of the bicyclic pyrazolinone derivative of the invention according to the methods shown in Test Examples below was examined. The herbicidal effect with respect to the test weeds or the phytotoxicity with respect to the test crops was examined according to the following criteria, and evaluated in six stage scores of 0 to 5. A vat having an area of 81 cm^2 and a depth of 3.5 cm was filled with upland soil, then, seeds of Ipomoea purpurea (tall morning glory), Amaranthus viridis (green amaranthus), Abutilon theophrasti (velvetleaf), Chenopodium album (common lambsquarters), and corn were seeded thereto, and the seeds were covered with soil of about 0.5 cm. Next day, a wettable powder or an emulsifiable concentrate of the compound of the present invention prepared according to Formulation Example was diluted, and a spray treatment was uniformly performed on the covered oil so as to be a predetermined dosage. The herbicidal effect with respect to the test weeds and the phytotoxicity with respect to corn about 21 days after the treatment were evaluated according to the evaluation criteria in six stages of 0 to 5 described above.

[8] = system: corn; assay: Test Example-5: phytotoxicity by a foliage treatment after weeds are generated under upland field conditions; conditions: foliage treatment after emergence, about 14 days after treatment, score 0-5
Excerpt: as §3, with “While watering was suitably performed on there, the seeds were grown for 14 days. A” for “Next day, a”, “foliage portion of the plant” for “covered oil”, “dosage in the amount of water of 4000 L per hectare.” for “dosage.”, “14” for “21”

[9] = system: Abutilon theophrasti (velvetleaf); assay: Test Example-5: herbicidal effect by a foliage treatment after weeds are generated under upland field conditions; conditions: foliage treatment after emergence, about 14 days after treatment, score 0-5
Excerpt: as §3, with “While watering was suitably performed on there, the seeds were grown for 14 days. A” for “Next day, a”, “foliage portion of the plant” for “covered oil”, “dosage in the amount of water of 4000 L per hectare.” for “dosage.”, “14” for “21”

[10] = system: Ipomoea purpurea (tall morning glory); assay: as above; conditions: foliage treatment after emergence, about 14 days after treatment, score 0-5
Excerpt: as §3, with “While watering was suitably performed on there, the seeds were grown for 14 days. A” for “Next day, a”, “foliage portion of the plant” for “covered oil”, “dosage in the amount of water of 4000 L per hectare.” for “dosage.”, “14” for “21”

[11] = system: Chenopodium album (common lambsquarters); assay: as above; conditions: foliage treatment after emergence, about 14 days after treatment, score 0-5
Excerpt: as §3, with “While watering was suitably performed on there, the seeds were grown for 14 days. A” for “Next day, a”, “foliage portion of the plant” for “covered oil”, “dosage in the amount of water of 4000 L per hectare.” for “dosage.”, “14” for “21”

[12] = system: Amaranthus viridis (green amaranthus); assay: as above; conditions: foliage treatment after emergence, about 14 days after treatment, score 0-5
Excerpt: as §3, with “While watering was suitably performed on there, the seeds were grown for 14 days. A” for “Next day, a”, “foliage portion of the plant” for “covered oil”, “dosage in the amount of water of 4000 L per hectare.” for “dosage.”, “14” for “21”

[13] = system: Monochoria vaginalis (monochoria); assay: Test Example-1: herbicidal effect by a treatment before weeds are generated under submerged conditions; conditions: 500 g a.i/ha, pre-emergence treatment, about 15 days after treatment, score 0-5
Outline: (§4)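 Pre-emergence, submerged paddy soil; WP/EC formulation diluted, applied to floodwater at seeding day at predetermined dose; visual herbicidal score 0–5 at ~15 days after treatment.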

[14] = system: other annual broad leaf weeds (Lindernia procumbens, Rotala indica, Elatine triandra); assay: as above; conditions: 500 g a.i/ha, pre-emergence treatment, about 15 days after treatment, score 0-5
Outline: as §4

[15] = system: Cyperus difformis (smallflower umbrella plant); assay: as above; conditions: 500 g a.i/ha, pre-emergence treatment, about 15 days after treatment, score 0-5
Outline: as §4

[16] = system: Scirpus juncoides (bulrush); assay: as above; conditions: 500 g a.i/ha, pre-emergence treatment, about 15 days after treatment, score 0-5
Outline: as §4

[17] = system: Echinochloa oryzicola (barnyard grass); assay: as above; conditions: 500 g a.i/ha, pre-emergence treatment, about 15 days after treatment, score 0-5
Outline: as §4

[18] = system: Eleocharis acicularis (needle spikerush); assay: as above; conditions: 500 g a.i/ha, pre-emergence treatment, about 15 days after treatment, score 0-5
Outline: as §4

[19] = system: Abutilon theophrasti (velvetleaf); assay: Test Example-3: herbicidal effect by a treatment before weeds are generated under upland field conditions; conditions: upland soil treatment before emergence, about 21 days after treatment, score 0-5
Excerpt: as §3

[20] = system: Ipomoea purpurea (tall morning glory); assay: as above; conditions: upland soil treatment before emergence, about 21 days after treatment, score 0-5
Excerpt: as §3

[21] = system: Chenopodium album (common lambsquarters); assay: as above; conditions: upland soil treatment before emergence, about 21 days after treatment, score 0-5
Excerpt: as §3

[22] = system: Amaranthus viridis (green amaranthus); assay: as above; conditions: upland soil treatment before emergence, about 21 days after treatment, score 0-5
Excerpt: as §3

[23] = system: corn; assay: Test Example-2: phytotoxicity by a soil treatment before weeds are generated under upland field conditions; conditions: application amount 500 g a.i/ha, soil spray treatment before weeds are generated, about 21 days after the treatment, score 0 to 5
Outline: as §2

C#CCOc1cc(-c2c(Cl)n3n(c2=O)CCCC3)c(F)cc1Cl [Example 1-238]
Herbicidal effect Abutilon theophrast [1]: 5 (Herbicidal effect/phytotoxicity was 90% or greater) | Herbicidal effect Chenopodium album [2]: 5 (Herbicidal effect/phytotoxicity was 90% or greater) | Herbicidal effect Amaranthus viridis [3]: 5 (Herbicidal effect/phytotoxicity was 90% or greater) | Phytotoxicity Corn [4]: 3 (Herbicidal effect/phytotoxicity was 50% to 70%) | Herbicidal effect Chenopodium album [5]: 5 (Herbicidal effect/phytotoxicity was 90% or greater) | Herbicidal effect Amaranthus viridis [6]: 5 (Herbicidal effect/phytotoxicity was 90% or greater) | Phytotoxicity Corn ([7]; 50 g a.i/ha): 0 (Herbicidal effect/phytotoxicity was 0% to 10%) | Phytotoxicity Corn ([7]; 100 g a.i/ha): 0 (Herbicidal effect/phytotoxicity was 0% to 10%) | Phytotoxicity Corn ([8]; 12.5 g a.i/ha): 0 (Herbicidal effect/phytotoxicity was 0% to 10%) | Phytotoxicity Corn ([8]; 25 g a.i/ha): 0 (Herbicidal effect/phytotoxicity was 0% to 10%) | Herbicidal effect Abutilon theophrasti ([9]; 12.5 g a.i/ha): 5 (Herbicidal effect/phytotoxicity was 90% or greater) | Herbicidal effect Abutilon theophrasti ([9]; 25 g a.i/ha): 5 (Herbicidal effect/phytotoxicity was 90% or greater) | Herbicidal effect Ipomoea purpurea ([10]; 12.5 g a.i/ha): 5 (Herbicidal effect/phytotoxicity was 90% or greater) | Herbicidal effect Ipomoea purpurea ([10]; 25 g a.i/ha): 5 (Herbicidal effect/phytotoxicity was 90% or greater) | Herbicidal effect Chenopodium album ([11]; 12.5 g a.i/ha): 5 (Herbicidal effect/phytotoxicity was 90% or greater) | Herbicidal effect Chenopodium album ([11]; 25 g a.i/ha): 5 (Herbicidal effect/phytotoxicity was 90% or greater) | Herbicidal effect Amaranthus viridis ([12]; 12.5 g a.i/ha): 5 (Herbicidal effect/phytotoxicity was 90% or greater) | Herbicidal effect Amaranthus viridis ([12]; 25 g a.i/ha): 5 (Herbicidal effect/phytotoxicity was 90% or greater) | Herbicidal effect Monochoria vaginalis [13]: 5 (Herbicidal effect/phytotoxicity was 90% or greater) | Herbicidal effect Broadleaf weed [14]: 5 (Herbicidal effect/phytotoxicity was 90% or greater) | Herbicidal effect Cyperus difformis [15]: 5 (Herbicidal effect/phytotoxicity was 90% or greater) | Herbicidal effect Scirpus juncoides [16]: 5 (Herbicidal effect/phytotoxicity was 90% or greater) | Herbicidal effect Echinochloa oryzicola [17]: 5 (Herbicidal effect/phytotoxicity was 90% or greater) | Herbicidal effect Eleocharis acicularis [18]: 5 (Herbicidal effect/phytotoxicity was 90% or greater) | Herbicidal effect Abutilon theophrast ([19]; 50 g a.i/ha): 5 (Herbicidal effect/phytotoxicity was 90% or greater) | Herbicidal effect Abutilon theophrast ([19]; 100 g a.i/ha): 5 (Herbicidal effect/phytotoxicity was 90% or greater) | Herbicidal effect Ipomoea purpurea ([20]; 50 g a.i/ha): 5 (Herbicidal effect/phytotoxicity was 90% or greater) | Herbicidal effect Ipomoea purpurea ([20]; 100 g a.i/ha): 5 (Herbicidal effect/phytotoxicity was 90% or greater) | Herbicidal effect Chenopodium album ([21]; 50 g a.i/ha): 5 (Herbicidal effect/phytotoxicity was 90% or greater) | Herbicidal effect Chenopodium album ([21]; 100 g a.i/ha): 5 (Herbicidal effect/phytotoxicity was 90% or greater) | Herbicidal effect Amaranthus viridis ([22]; 50 g a.i/ha): 4 (Herbicidal effect/phytotoxicity was 70% to 90%) | Herbicidal effect Amaranthus viridis ([22]; 100 g a.i/ha): 5 (Herbicidal effect/phytotoxicity was 90% or greater) | Phytotoxicity Corn [23]: 1 (Herbicidal effect/phytotoxicity was 10% to 30%)
